Laboratory results reported in paper PMC8699473, “An Easily Expandable Multi-Drug LC-MS Assay for the Simultaneous Quantification of 57 Oral Antitumor Drugs in Human Plasma” (Cancers, 2021).

Experiment: Short-term stability in spiked pooled human plasma (bench-top, 4 °C, 56 °C)

Row | SMILES | Short-time stability (1h, 56°C) Accuracy [%] (validation standard 2xLLOV) | Short-time stability (24h, 4°C, without daylight) Accuracy [%] (validation standard 2xLLOV) | Short-time stability (24h, RT, with daylight) Accuracy [%] (validation standard 2xLLOV) | Short-time stability (24h, RT, without daylight) Accuracy [%] (validation standard 2xLLOV) | Short-time stability (1h, 56°C) Accuracy [%] (validation standard LLOV) | Short-time stability (24h, 4°C, without daylight) Accuracy [%] (validation standard LLOV) | Short-time stability (24h, RT, with daylight) Accuracy [%] (validation standard LLOV) | Short-time stability (24h, RT, without daylight) Accuracy [%] (validation standard LLOV) | Short-time stability (1h, 56°C) Accuracy [%] (validation standard MOV) | Short-time stability (24h, 4°C, without daylight) Accuracy [%] (validation standard MOV) | Short-time stability (24h, RT, with daylight) Accuracy [%] (validation standard MOV) | Short-time stability (24h, RT, without daylight) Accuracy [%] (validation standard MOV) | Short-time stability (1h, 56°C) Accuracy [%] (validation standard ULOV) | Short-time stability (24h, 4°C, without daylight) Accuracy [%] (validation standard ULOV) | Short-time stability (24h, RT, with daylight) Accuracy [%] (validation standard ULOV) | Short-time stability (24h, RT, without daylight) Accuracy [%] (validation standard ULOV)
1 | CNC(=O)c1ccc(N2C(=S)N(c3ccc(C#N)c(C(F)(F)F)c3)C(=O)C2(C)C)cc1F [Enzalutamide] | 59.4% | 103.3% | 106.1% | 108.3% | 50.0% | 102.0% | 100.4% | 103.0% | 58.9% | 98.9% | 108.7% | 107.8% | 50.9% | 95.8% | 103.4% | 103.8%
2 | C#Cc1cccc(Nc2ncnc3cc(OCCOC)c(OCCOC)cc23)c1 [Erlotinib] | 61.0% | 100.7% |  | 95.3% | 69.2% | 110.4% |  | 107.4% | 52.1% | 98.0% |  | 97.9% | 45.8% | 98.7% |  | 101.0%
3 | Cc1ccc(NC(=O)c2ccc(CN3CCN(C)CC3)cc2)cc1Nc1nccc(-c2cccnc2)n1 [Imatinib] |  | 105.2% | 86.0% | 82.7% |  | 81.3% | 83.7% | 83.8% |  | 102.2% | 93.6% | 88.6% |  | 94.2% | 85.6% | 82.9%
4 | CS(=O)(=O)CCNCc1ccc(-c2ccc3ncnc(Nc4ccc(OCc5cccc(F)c5)c(Cl)c4)c3c2)o1 [Lapatinib] | 19.2% | 96.4% | 46.9% | 53.0% | -24.8% | 92.5% | 5.2% | 14.4% | 46.1% | 97.9% | 93.5% | 109.4% | 42.5% | 94.3% | 100.7% | 112.4%
5 | Nc1cccc2c1CN(C1CCC(=O)NC1=O)C2=O (stereo not shown) [Lenalidomide] | 39.6% | 107.4% | 54.9% | 49.6% |  | 83.0% | 81.5% |  | 20.6% | 97.8% | 58.7% | 54.1% | 18.5% | 90.4% | 51.9% | 50.9%
